Patent US10729738B2, “Hindered disulfide drug conjugates” (priority 2015, dated 2020)
*1 amine or outer side, *2 acyl side, *3 side chain or, on linkers, in order; H or OH if unused. Where a SMILES comes first, the peptide text is derived from it. [ ]: non-standard residue; d: D form. The star is where a group is joined. Dolaproine = CO[C@@H]([C@@H]1CCCN1)[C@@H](C)C(=O)O; X22 = CC(C)(COC(=O)*)SSc1nc2cccc(C(=O)O)c2[nH]1; X15 = C[C@H](COC(=O)*)SSc1ccc([N+](=O)[O-])cn1; Dil = CC[C@H](C)[C@H](NC)[C@@H](CC(=O)O)OC; X19 = Cn1cc(C(=O)O)nc1SSC(C)(C)COC(=O)*; PABC = O=C(OCc1ccc(N[*:1])cc1)[*:2]; X2 = C[C@@H](N*)[C@@H](O)c1ccccc1; X21 = CC(C)(COC(=O)*)SSc1ncc[nH]1; X20 = Cn1cnnc1SSC(C)(C)COC(=O)*; X18 = CC(C)(COC(=O)*)SSC(=N)N; NMeV = CN[C@H](C(=O)O)C(C)C

Legend:
[1] = biological target: T1, penetratin (AntP) peptide (Drosophila melanogaster, UniProt P02833); assay: Conjugation of activated disulfide-MMAE molecules to penetratin (AntP) peptide (% Product); conditions: peptide 25 uM, disulfide MMAE 5 equivalents, 75 mM Tris pH 8.5 and 10% DMF, ~16 hours at room temperature, UV peak area
T1 construct: C-terminal amide (CONH2); made in house; host or cells: chemical synthesis (Fmoc solid-phase peptide synthesis)
Description: In a second evaluation, MMAE was conjugated to penetratin (AntP) peptide. The AntP peptide, with sequence H2N-[…]-CONH2 (SEQ ID NO:1) bearing a free Cys thiol at the C-terminus, was synthesized via standard Fmoc solid-phase peptide synthesis methods. This peptide was conjugated at a concentration of 25 uM to disulfide MMAE molecules with varying leaving groups (5 equivalents) in a buffered solution composed of 75 mM Tris, pH 8.5 and 10% DMF for ˜16 hours at room temperature. Extent of the reaction was measured by dividing the integrated area for the UV peak of the MMAE-AntP conjugate by the sum of all peaks (“% Product”). The ideal value for % Product is 100%. The results are reported in table 31 below wherein the wavy line for the leaving group represent the point of attachment to the disulfide bond, and “AntP % P” refers to penetratin (AntP) peptide % product.

[2] = biological target: human serum albumin Cys-34 (Homo sapiens, UniProt P02768); assay: Conjugation of activated disulfide-MMAE molecules to human serum albumin (Conjugate Ratio, LC/MS); conditions: disulfide MMAE compound at 10 molar equivalents relative to HSA, 75 mM Tris pH 8.5, ~16 hours at room temperature
Description: In a first evaluation, MMAE was conjugated to human serum albumin (HSA). […] This Cys residue is blocked as a mixed disulfide with Cys or glutathione, preventing complete conjugation of other molecules to this residue. […] Conjugate reactions were analyzed by LC/MS. The extent of the expected MMAE-HSA conjugate formed during the reaction is represented by the “Conjugate Ratio”, measured by dividing the abundance of the MS peak for the MMAE-HSA conjugate by the sum total abundance of all peaks observed. The ideal value for the Conjugate Ratio is 1.0. The results are reported in table 31 below wherein the wavy line for the leaving group represents the point of attachment to the disulfide bond, and “HSA CR” refers to human serum albumin conjugate ratio.

calf DNA = assay: DNA binding potential (incubation with calf DNA, extraction, LC/MS); conditions: 1 mg/mL calf DNA, 37° C., 1 hour
Description: For DNA binding analysis, compounds 7 and 8 were incubated at […] with 1 mg/mL calf DNA for 1 hour in 0.5 mL of 10 mM Bis-Tris, pH 7.1 at 37° C. Ethyl acetate (1 mL) was used to extract the reaction mixture twice by vortex (20 seconds) and centrifugation (4 min at 5,000×g). The combined organic extracts were concentrated under vacuum and reconstituted in 0.15 mL of 1:1 water/methanol before injection on LC/MS. The samples were analyzed by LC/MS/UV on Sciex TripleTOF 5600 on a Hypersil Gold C18 column (100×2.1, […], Thermo Scientific) in a positive ESI ion mode. The column was eluted by a gradient of buffer A (0.1% formic acid) to buffer B (0.1% formic acid in acetonitrile), 5% B 0-0.5 min, 5-25% B 0.5-8 min, 25-75% B 8-13 min, and 75-95% B 13-13.5 min, 95% B 13.5-14.5 min, 95-5% B 14.5-15 min at 0.4 mL/min.

[3] = In vitro disulfide cleavage and immolation by incubation with cysteine or glutathione (LC/MS); type: physicochemical; conditions: for Percentage of all products: pH 7.0, 37° C.
Description: In a first phase of the experiment, disulfide cleavage and immolation by incubation with cysteine and glutathione—with the thiol concentrations mimic those in plasma and cancer cells—was investigated using unconjugated small molecule model systems with para-nitro-pyridyl disulfide-containing linker drug analogs 1, 2 and 11 below. In particular, cleavage and immolation was evaluated in vitro by incubation at […] with cysteine ([…] or 200 μM) or glutathione (GSH, 4 mM) in 100 mM Tris buffer pH 7.0 containing 5% methanol at 37° C. Aliquots were taken at specified time points and the samples were analyzed by LC/MS on Sciex TripleTOF 5600 on a Hypersil Gold C18 column (100×2.1, […], Thermo Scientific). The column was eluted by a gradient of buffer A (0.1% formic acid in 10 mM ammonium acetate) to buffer B (0.1% formic acid in 10 mM ammonium acetate in 90% acetonitrile), 5% B 0-0.5 min, 5-25% B 0.5-8 min, 25-75% B 8-13 min, and 75-95% B 13-13.5 min, 95% B 13.5-14.5 min, 95-5% B 14.5-15 min at 0.4 mL/min. Under these conditions, para-nitropyridyl thiol was eluted at 5.3 min. All products (compounds 1, 2, 11, 3a, 3b, 4a, 4b, 12a, 12 b, 6, 7, 13 and 8) were separated and characterized by LC/MS/MS in a positive ESI ion mode. All analytes had the protonated molecular MH^+ as the major species with little source fragmentation. Full scan accurate mass peak areas were used to estimate relative abundance of each component and the disappearance of 1, 2, and 11 estimated relative full scan peak areas was consistent with that estimated based on the relative abundance compared to time 0 by MS or UV. The results are reported in Table 15 below and the analytical results are presented in Table 16 below where “Cmpd” refers to compound, “RT” refers to retention time in minutes, and “Calc. Mass” refers to calculated mass. The relative abundance of disulfide cleavage and immolation products over time were evaluated and are disclosed in FIGS. 12A to 12C, 13A to 13C, 14A to 14C and 15A to 15C where the products were monitored by LC/MS from incubations of linker drugs 1, 2, and 11 at pH 7.0 and 37° C. in the presence of: 0.2 mM cysteine (FIGS. 12A, 12B and 12C); 0.03 mM cysteine (FIGS. 13A, 13B and 13C); 4 mM glutathione (FIGS. 14A, 14B and 14C); and 0.03 mM glutathione (FIGS. 15A, 15B and 15C). In FIGS. 12A to 12C, 13A to 13C, 14A to 14C and 15A to 15C, compound reference numbers 1, 2, 3a, 3b, 4a, 4b, 6, 7, 8, 11, 12a, 12b and 13 correspond to the structures below.

[4] = test system: target-expressing cell lines; conditions: target-expressing cell lines (Hartley 2011); cited from earlier work
SK-BR-3 cells = assay: In vitro IC50 of MMAE ADCs, Cell Titer-Glo, SK-BR-3; type: cell-based; conditions: 5 days
Description: (§1) The in vitro IC50 of ADC compounds MMAE 1, MMAE 2, MMAE 5 and MMAE 6 against SK-BR-3 and KPL-4 cells was evaluated. The cells were plated in 96-well plates (SK-BR-3 at 5000 cell per well; KPL-4 at 1500 cells […]) in cysteine free RPMI+10% FBS+20 mM glutamine+50 pM cysteine media and allowed to adhere overnight. Media was then removed and was replaced with fresh media containing different ADC concentrations. Cell viability was measured 5 days after drug administration using Cell Titer-Glo.

KPL-4 cells = assay: In vitro IC50 of MMAE ADCs, Cell Titer-Glo, KPL-4; type: cell-based; conditions: 5 days
Description: as §1

Chain of human serum albumin Cys-34 (P02768 25-609): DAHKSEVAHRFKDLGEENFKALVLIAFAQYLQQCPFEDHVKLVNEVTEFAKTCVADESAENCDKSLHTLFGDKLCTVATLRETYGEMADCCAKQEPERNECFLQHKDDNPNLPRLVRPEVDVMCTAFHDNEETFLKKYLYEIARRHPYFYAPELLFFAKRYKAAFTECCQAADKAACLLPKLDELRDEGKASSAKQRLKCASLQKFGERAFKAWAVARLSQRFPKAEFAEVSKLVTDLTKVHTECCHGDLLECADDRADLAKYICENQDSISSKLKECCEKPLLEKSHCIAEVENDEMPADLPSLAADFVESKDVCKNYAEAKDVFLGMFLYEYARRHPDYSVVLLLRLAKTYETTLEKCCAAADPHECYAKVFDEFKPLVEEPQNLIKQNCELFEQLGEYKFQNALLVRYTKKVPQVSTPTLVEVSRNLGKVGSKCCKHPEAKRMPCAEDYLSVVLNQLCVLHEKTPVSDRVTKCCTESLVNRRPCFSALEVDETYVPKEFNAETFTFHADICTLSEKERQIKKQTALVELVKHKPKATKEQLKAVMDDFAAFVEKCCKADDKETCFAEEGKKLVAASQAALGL

Compound: CC[C@H](C)[C@@H]([C@@H](CC(=O)N1CCC[C@H]1[C@H](OC)[C@@H](C)C(=O)N[C@H](C)[C@@H](O)c1ccccc1)OC)N(C)C(=O)[C@@H](NC(=O)[C@H](C(C)C)N(C)C(=O)OCC(C)(C)SSC(=N)N)C(C)C (X18-[NMeV]V[Dil][Dolaproine]-X2)
- AntP % P (penetratin (AntP) peptide % product) [1]: 90%
- HAS CR (HSA Conjugation Ratio) [2]: 0.98

Compound: CC[C@H](C)[C@@H]([C@@H](CC(=O)N1CCC[C@H]1[C@H](OC)[C@@H](C)C(=O)N[C@H](C)[C@@H](O)c1ccccc1)OC)N(C)C(=O)[C@@H](NC(=O)[C@H](C(C)C)N(C)C(=O)OCC(C)(C)SSc1nc(C(=O)O)cn1C)C(C)C (X19-[NMeV]V[Dil][Dolaproine]-X2)
- AntP % P (penetratin (AntP) peptide % product) [1]: 4.9%
- HAS CR (HSA Conjugation Ratio) [2]: 0.38

Compound: CC[C@H](C)[C@@H]([C@@H](CC(=O)N1CCC[C@H]1[C@H](OC)[C@@H](C)C(=O)N[C@H](C)[C@@H](O)c1ccccc1)OC)N(C)C(=O)[C@@H](NC(=O)[C@H](C(C)C)N(C)C(=O)OCC(C)(C)SSc1nncn1C)C(C)C (X20-[NMeV]V[Dil][Dolaproine]-X2)
- AntP % P (penetratin (AntP) peptide % product) [1]: 17%
- HAS CR (HSA Conjugation Ratio) [2]: 0.66

Compound: CC[C@H](C)[C@@H]([C@@H](CC(=O)N1CCC[C@H]1[C@H](OC)[C@@H](C)C(=O)N[C@H](C)[C@@H](O)c1ccccc1)OC)N(C)C(=O)[C@@H](NC(=O)[C@H](C(C)C)N(C)C(=O)OCC(C)(C)SSc1ncc[nH]1)C(C)C (X21-[NMeV]V[Dil][Dolaproine]-X2)
- AntP % P (penetratin (AntP) peptide % product) [1]: 1.7%
- HAS CR (HSA Conjugation Ratio) [2]: 0.99

Compound: CC[C@H](C)[C@@H]([C@@H](CC(=O)N1CCC[C@H]1[C@H](OC)[C@@H](C)C(=O)N[C@H](C)[C@@H](O)c1ccccc1)OC)N(C)C(=O)[C@@H](NC(=O)[C@H](C(C)C)N(C)C(=O)OCC(C)(C)SSc1nc2cccc(C(=O)O)c2[nH]1)C(C)C (X22-[NMeV]V[Dil][Dolaproine]-X2)
- AntP % P (penetratin (AntP) peptide % product) [1]: 25%
- HAS CR (HSA Conjugation Ratio) [2]: 0.34

Compound: O=[N+]([O-])c1ccc(S)nc1 [Compound 5, para-nitropyridyl thiol]
- pKa (pKa of thiol compounds): 4.7 to 4.8

Compound: C=C1C[C@H]2C=Nc3cc(OCCCCCOc4cc5c(cc4OC)C(=O)N4CC(=C)C[C@H]4[C@H](O)N5C(=O)OCC4(S)CC4)c(OC)cc3C(=O)N2C1 [Compound 7]
- DNA binding (calf DNA): does not bind to DNA
- pKa (pKa of thiol compounds): 4.7 to 4.8
- Percentage of all products ([3]; 30 μM cysteine, 1 h): 5.1%
- Percentage of all products ([3]; 30 μM cysteine, 4 h): 9.7%
- Percentage of all products ([3]; 30 μM cysteine, 24 h): 11.6%
- Percentage of all products ([3]; 200 μM cysteine, 1 h): 44.7%
- Percentage of all products ([3]; 200 μM cysteine, 4 h): 73.6%
- Percentage of all products ([3]; 200 μM cysteine, 24 h): 87.3%
- Percentage of all products ([3]; 4 mM GSH, 1 h): 80.8%
- Percentage of all products ([3]; 4 mM GSH, 4 h): 89.7%
- Percentage of all products ([3]; 4 mM GSH, 24 h): 92.3%
- Immolation of thiol intermediate ([3]; incubation with cysteine or glutathione): did not appreciably immolate and appeared to be stable

Compound: C=C1C[C@H]2C=Nc3cc(OCCCCCOc4cc5c(cc4OC)C(=O)N4CC(=C)C[C@H]4C=N5)c(OC)cc3C(=O)N2C1 [Compound 8]
- DNA binding (calf DNA): quickly binds to DNA
- Fraction unextractable after incubation in DNA solution (calf DNA): approximately 94%
- IC50 [4]: ~0.05 nM

Compound: CC[C@H](C)[C@@H]([C@@H](CC(=O)N1CCC[C@H]1[C@H](OC)[C@@H](C)C(=O)N[C@H](C)[C@@H](O)c1ccccc1)OC)N(C)C(=O)[C@@H](NC(=O)[C@H](C(C)C)N(C)C(=O)OCc1ccc(NC(=O)OC[C@@H](C)SSc2ccc([N+](=O)[O-])cn2)cc1)C(C)C [MMAE 6] ({X15-PABC}-[NMeV]V[Dil][Dolaproine]-X2)
- SK-BR-3 IC50 (SK-BR-3 cells): 0.78 µg/mL
- KPL-4 IC50 (KPL-4 cells): 0.411 µg/mL
